Measurements reported in patent publication US11560391B2, “Sulfonylurea compounds as inhibitors of interleukin-1 activity” (Genentech, Inc., priority 2018, dated 2023).
Read-outs that look alike come from different tables or passages of the source.

Key:
[1] = system: PBMCs; assay: CTG (CellTiter-Glo) viability assay of compound-treated LPS and nigericin stimulated PBMCs; format: cell-based, human
Method: (§1) Human peripheral blood mononuclear cells (PBMCs), consisting of lymphocytes (T, B and NK cells), monocytes and dendritic cells, are freshly isolated from human peripheral blood from healthy donors. Cells are obtained through an IRB approved donor program by iXCells Biotechnologies where all the donors are tested for bacterial and viral infections. Cells are purified from peripheral blood using ficoll gradient centrifugation.
(§2) Fresh or cryopreserved PMBCs are seeded in V-bottom 96-well plate at 0.5-1×10^5 cells per well and incubated overnight at 37° C. with 5% CO2 in RPMI 1640 medium with GlutaMAX supplement, 4.5 g/L D-glucose, 10% Fetal Bovine Serum (FBS), […] Sodium Pyruvate, 1% Penicillin/Streptomycin, 10 mM HEPES and 0.05 mM of […]. Freshly isolated or cryopreserved KCs cells are seeded in flat-bottom 96-well plates at 0.6-1.5×10^5 cells/well and incubated overnight at 37° C., 5% CO2 in RPMI 1640 Medium with GlutaMAX supplement, FBS, 1% Penicillin/Streptomycin and 10 mM HEPES. The following day, the cells are primed with 100 ng/mL of lipopolysaccharides (LPS; Sigma Aldrich) in FBS-free RPMI 1640 for 3 h. After the priming step, the media is removed and PBMCs are pre-incubated with serial concentrations of test compounds (0.00017-10 uM) or vehicle (DMSO) for 30 min in FBS-free media prior to addition of the NLRP3 activator. Cells are then stimulated with 10 μM Nigericin (Sigma Aldrich; InvivoGen) for 1.5 h. Plates were centrifuged at 1,500 rpm for 3 minutes to pellet cells and supernatant was transferred into new plates for subsequent experiments.
Viability of compound treated cells is measured using CellTiter-Glo® assay (Promega, Madison, Wis.) that measures the ATP content of cells which is proportional to the number of live cells within a well. This is a counter-screen to establish that the reduction of IL-1β levels in LPS and nigericin stimulated and compound treated cells is not due to cytotoxicity, but rather through the inhibition of the inflammasome pathway. Compounds inhibiting NRLP3 inflammasome activation ultimately increase the viability of LPS and nigericin stimulated cells by blocking NLRP3 mediated pyroptosis that would otherwise lead to cell lysis.

[2] = target: T1, NLRP3 inflammasome (Homo sapiens, UniProt Q96P20); assay: NLRP3 inflammasome activation assay in LPS-primed, nigericin-stimulated PBMCs, IL-1β release; format: cell-based; conditions: 10 μM nigericin
T1 construct: freshly isolated from human peripheral blood from healthy donors; StemCells Technologies; host or cells: primary human PBMCs
Method: Some of the following assays were used to determine the inhibitory activity of the compounds on the NLRP3 inflammasome using a common inflammasome activation stimuli-nigericin.
as §1, §2
For ELISA assays cells are seeded into 96-well plates. Post study, supernatants are removed and the levels of mature IL-1β, IL18 and TNFα (Quantikine ELISA, R&D systems) are measured in cell conditioned media by ELISA according to manufacturer's instructions.
Human frozen PBMCs were purchased from StemCells Technologies. Cells were rapidly thawed in 37° C. water bath and resuspended in fresh assay media consisting of RPMI 1640 Medium containing 1% sodium pyruvate, 10 mM HEPES, 2.5 g/L glucose and 55 μM 2-Mercaptoethanol. Cell density was adjusted to 8.1×10^5 cells/mL. Cells were primed by adding lipopolysaccharide (Invivogen Ultrapure lipopolysaccharide from E. coli, tlrl-3pelps) at a final concentration of 100 ng/mL in cell suspension. 37 μL of cell suspension with LPS was seeded per well of a 384 well plate and incubated for 3 hours at 37° C. and 5% CO2. After priming, PBMCs were preincubated with serially diluted test compounds with starting concentration of 40 μM followed by 2-fold dilution for a 20-point curve or vehicle (DMSO) for 30 min in assay media at 37° C. and 5% CO2. Cells were then stimulated with 10 μM nigericin (Invivogen, tlrl-nig-5) for 90 min at 37° C. and 5% CO2 to activate NLRP3 dependent inflammasome pathway and IL-1β release in cell culture supernatant. Cells were centrifuged at 1200 RPM for 1 min and 40 μL of supernatant was transferred into fresh plates and stored at −80° C. until IL-1β analysis.
16 μL of supernatant was added to white 384 well HTRF plates, followed by addition of 4 μL of HTRF cocktail in each well. Plates were quickly centrifuged, sealed and incubated overnight at room temperature. Next day, HTRF signal was read on a Pherastar and ratio of 665/620 was calculated based on manufacturer's protocol to obtain concentration of IL-1β in cell culture supernatant.

[3] = Homo sapiens, PBMC, LPS and nigericin stimulated cells, read-out: CTG pIC50 (converted)
[4] = LPS 100 ng/mL priming, read-out: IL-1B pIC50 (converted)
[5] = Homo sapiens, PBMC, read-out: PMBC CTG IC50
[6] = PBMC, LPS priming, read-out: PMBC IL-1β IC50
[7] = LPS and nigericin stimulated cells, read-out: CTG pIC50 (converted)

T1 sequence (Q96P20 whole entry): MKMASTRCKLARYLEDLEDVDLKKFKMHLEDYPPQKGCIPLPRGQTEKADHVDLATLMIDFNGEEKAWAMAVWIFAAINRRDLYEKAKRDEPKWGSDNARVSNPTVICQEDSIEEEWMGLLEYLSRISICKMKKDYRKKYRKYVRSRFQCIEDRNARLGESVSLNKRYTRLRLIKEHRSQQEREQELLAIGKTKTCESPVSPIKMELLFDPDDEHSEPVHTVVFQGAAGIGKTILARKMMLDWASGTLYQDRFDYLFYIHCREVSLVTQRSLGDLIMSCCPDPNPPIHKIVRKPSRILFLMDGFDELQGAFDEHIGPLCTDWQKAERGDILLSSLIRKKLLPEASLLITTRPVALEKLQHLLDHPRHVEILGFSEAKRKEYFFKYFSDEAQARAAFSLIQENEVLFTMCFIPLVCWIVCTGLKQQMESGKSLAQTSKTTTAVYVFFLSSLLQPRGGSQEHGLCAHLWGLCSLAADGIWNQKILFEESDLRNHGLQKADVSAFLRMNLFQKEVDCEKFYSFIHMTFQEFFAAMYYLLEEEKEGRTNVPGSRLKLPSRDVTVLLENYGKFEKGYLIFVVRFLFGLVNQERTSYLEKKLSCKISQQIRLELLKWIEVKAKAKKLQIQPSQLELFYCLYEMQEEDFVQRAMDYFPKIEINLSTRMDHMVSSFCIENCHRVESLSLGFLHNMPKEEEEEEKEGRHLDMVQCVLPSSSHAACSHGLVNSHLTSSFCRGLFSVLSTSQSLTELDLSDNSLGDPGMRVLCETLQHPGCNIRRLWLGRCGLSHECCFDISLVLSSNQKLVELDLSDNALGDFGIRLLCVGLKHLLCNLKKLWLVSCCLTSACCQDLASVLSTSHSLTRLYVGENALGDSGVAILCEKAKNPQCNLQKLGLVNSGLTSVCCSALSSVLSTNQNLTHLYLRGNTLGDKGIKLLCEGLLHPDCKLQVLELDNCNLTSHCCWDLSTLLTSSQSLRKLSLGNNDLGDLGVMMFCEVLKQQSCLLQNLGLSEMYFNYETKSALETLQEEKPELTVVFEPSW

Structure (SMILES) | IC50 [1, 3] | IC50 [2, 4] | IC50 [1, 5] | IC50 [2, 6] | IC50 [1, 7]
O=C(NC1C2CC3CC(C2)C1C3)NS(=O)(=O)c1cnn2c1OCCC2 (stereo not shown) | > 10000 nM | 1000 to 10000 nM | – | – | –
COc1cc(C(C)C)c(NC(=O)NS(=O)(=O)c2cnn3c2OCC(CNC(C)=O)C3)c(C(C)C)n1 (stereo not shown) | 1000 to 10000 nM | 1000 to 10000 nM | – | – | –
O=C(NC1C2CC3CC(C2)CC1C3)NS(=O)(=O)c1cnn2c1OCCC2 (stereo not shown) [Example 3, N-(((1r,3r,5r,7r)-adamantan-2-yl)carbamoyl)-6,7-dihydro-5H-pyrazolo[5,1-b][1,3]oxazine-3-sulfonamide] | – | – | > 10000 nM | 2080 nM | –
O=C(NC1(c2ccccc2)CC1)NS(=O)(=O)c1cnn2c1OCCC2 [Example 11, N-((1-phenylcyclopropyl)carbamoyl)-6,7-dihydro-5H-pyrazolo[5,1-b][1,3]oxazine-3-sulfonamide] | – | – | > 10000 nM | > 10000 nM | –
CC(C)c1cncc(C(C)C)c1NC(=O)NS(=O)(=O)c1cnn2c1OCCC2 [Example 28, N-((3,5-diisopropylpyridin-4-yl)carbamoyl)-6,7-dihydro-5H-pyrazolo[5,1-b][1,3]oxazine-3-sulfonamide] | – | – | 69 nM | 1790 nM | –
CC(C)c1ccnc(C(C)C)c1NC(=O)NS(=O)(=O)c1cnn2c1OCCC2 [Example 31, N-((2,4-diisopropylpyridin-3-yl)carbamoyl)-6,7-dihydro-5H-pyrazolo[5,1-b][1,3]oxazine-3-sulfonamide] | – | – | 890 nM | 4380 nM | –
CC(C)c1cc(Cl)nc(C(C)C)c1NC(=O)NS(=O)(=O)c1cnn2c1OCCC2 [Example 32, N-((6-chloro-2,4-diisopropylpyridin-3-yl)carbamoyl)-6,7-dihydro-5H-pyrazolo[5,1-b][1,3]oxazine-3-sulfonamide] | – | – | 920 nM | 590 nM | –
COc1cc(C(C)C)c(NC(=O)NS(=O)(=O)c2cnn3c2OC[C@@H](OC)C3)c(C(C)C)n1 [Example 37a, Sodium (S)—N-((2,4-diisopropyl-6-methoxypyridin-3-yl)carbamoyl)-6-methoxy-6,7-dihydro-5H-pyrazolo[5,1-b][1,3]oxazine-3-sulfonamide] | – | – | 600 nM | 550 nM | –
CC(C)n1nc2c(c1NC(=O)NS(=O)(=O)c1cnn3c1OCCC3)CCC2 [Example 44, N-((2-isopropyl-2,4,5,6-tetrahydrocyclopenta[c]pyrazol-3-yl)carbamoyl)-6,7-dihydro-5H-pyrazolo[5,1-b][1,3]oxazine-3-sulfonamide] | – | – | > 10000 nM | 1220 nM | –
CC(C)c1cc(C2CC2)nc(C(C)C)c1NC(=O)NS(=O)(=O)c1cnn2c1OCCC2 [Example 45, N-((6-cyclopropyl-2,4-diisopropylpyridin-3-yl)carbamoyl)-6,7-dihydro-5H-pyrazolo[5,1-b][1,3]oxazine-3-sulfonamide] | – | – | 370 nM | 910 nM | –
CC(C)c1cc(N(C)C)nc(C(C)C)c1NC(=O)NS(=O)(=O)c1cnn2c1OCCC2 [Example 51, Sodium N-((6-(dimethylamino)-2,4-diisopropylpyridin-3-yl)carbamoyl)-6,7-dihydro-5H-pyrazolo[5,1-b][1,3]oxazine-3-sulfonamide] | – | – | 1120 nM | 2070 nM | –
Cc1onc(-c2ccccc2)c1NC(=O)NS(=O)(=O)c1cnn2c1OCCC2 [drawing 373] | > 10000 nM | > 10000 nM | – | – | –
O=C(NC1(c2ccccc2)CC1)NS(=O)(=O)c1cnn2c1OCCC2 [drawing 376] | > 10000 nM | > 10000 nM | – | – | –
CC(C)c1nn(C)c(C(C)C)c1NC(=O)NS(=O)(=O)c1cnn2c1OCCC2 [drawing 391] | – | 1000 to 10000 nM | – | – | –
C=C(C)c1cncc(C(=C)C)c1NC(=O)NS(=O)(=O)c1cnn2c1OCCC2 [drawing 392] | – | > 10000 nM | – | – | –
CC(C)c1cncc(C(C)C)c1NC(=O)NS(=O)(=O)c1cnn2c1OCCC2 [drawing 393] | 100 to 1000 nM | 100 to 1000 nM | – | – | –
CC(C)c1cncc(C(C)C)c1NC(=O)NS(=O)(=O)c1cnn2c1OCCC2 [drawing 394] | – | 1000 to 10000 nM | – | – | < 100 nM
O=C(Nc1c2c(n3c1CCC3)CCCC2=O)NS(=O)(=O)c1cnn2c1OCCC2 [drawing 395] | – | > 10000 nM | – | – | –
COc1cc(C(C)C)c(NC(=O)NS(=O)(=O)c2cnn3c2OCCC3)c(C(C)C)n1 [drawing 396] | 100 to 1000 nM | 100 to 1000 nM | – | – | –

Structure (SMILES) | IC50 [1, 3] | IC50 [2, 4] | IC50 [1, 5] | IC50 [2, 6] | IC50 [1, 7]
CC(C)c1ccnc(C(C)C)c1NC(=O)NS(=O)(=O)c1cnn2c1OCCC2 [drawing 397] | – | 1000 to 10000 nM | – | – | 1000 to 10000 nM
CC(C)c1ccnc(C(C)C)c1NC(=O)NS(=O)(=O)c1cnn2c1OCCC2 [drawing 398] | – | 1000 to 10000 nM | – | – | 100 to 1000 nM
CC(C)c1cc(Cl)nc(C(C)C)c1NC(=O)NS(=O)(=O)c1cnn2c1OCCC2 [drawing 399] | 100 to 1000 nM | 100 to 1000 nM | – | – | –
CC(C)c1nn(C(C)C)c(C(C)C)c1NC(=O)NS(=O)(=O)c1cnn2c1OCCC2 [drawing 400] | 1000 to 10000 nM | 1000 to 10000 nM | – | – | –
CCn1nc(C(C)C)c(NC(=O)NS(=O)(=O)c2cnn3c2OCCC3)c1C(C)C [drawing 401] | 100 to 1000 nM | 1000 to 10000 nM | – | – | –
CC(C)c1nn(CC2CC2)c(C(C)C)c1NC(=O)NS(=O)(=O)c1cnn2c1OCCC2 [drawing 402] | 100 to 1000 nM | 100 to 1000 nM | – | – | –
CC(C)(C)c1cc(NC(=O)NS(=O)(=O)c2cnn3c2OCCC3)n(C(C)(C)C)n1 [drawing 403] | – | > 10000 nM | – | – | –
COc1cc(C(C)C)c(NC(=O)NS(=O)(=O)c2cnn3c2OC[C@@H](OC)C3)c(C(C)C)n1 [drawing 404] | 100 to 1000 nM | 100 to 1000 nM | – | – | –
CO[C@@H]1COc2c(S(=O)(=O)NC(=O)Nc3c(C(C)C)nn(C)c3C(C)C)cnn2C1 [drawing 405] | 100 to 1000 nM | 1000 to 10000 nM | – | – | –
CCn1nc(C(C)C)c(NC(=O)NS(=O)(=O)c2cnn3c2OC[C@@H](OC)C3)c1C(C)C [drawing 406] | 100 to 1000 nM | 1000 to 10000 nM | – | – | –
CN[C@@H]1COc2c(S(=O)(=O)NC(=O)Nc3c(C(C)C)cc(OC)nc3C(C)C)cnn2C1 [drawing 408] | < 100 nM | 100 to 1000 nM | – | – | –
COc1cc(C(C)C)c(NC(=O)NS(=O)(=O)c2cnn3c2OC[C@@H](N2CC(OC)C2)C3)c(C(C)C)n1 [drawing 409] | 100 to 1000 nM | < 100 nM | – | – | –
Cc1cc(NC(=O)NS(=O)(=O)c2cnn3c2OCCC3)n(C(C)C)n1 [drawing 410] | – | > 10000 nM | – | – | –
CC(C)n1nc2c(c1NC(=O)NS(=O)(=O)c1cnn3c1OCCC3)CCC2 [drawing 411] | > 10000 nM | 1000 to 10000 nM | – | – | –
CC(C)c1cc(C2CC2)nc(C(C)C)c1NC(=O)NS(=O)(=O)c1cnn2c1OCCC2 [drawing 412] | 100 to 1000 nM | 100 to 1000 nM | – | – | –
CC1(C)COc2c(S(=O)(=O)NC(=O)NC3CCCCc4ccccc43)cnn2C1 (stereo not shown) [drawing 413] | – | > 10000 nM | – | – | –
CC(C)c1cc(C#N)nc(C(C)C)c1NC(=O)NS(=O)(=O)c1cnn2c1OCCC2 [drawing 416] | 100 to 1000 nM | 1000 to 10000 nM | – | – | –
CCOc1cc(C(C)C)c(NC(=O)NS(=O)(=O)c2cnn3c2OCCC3)c(C(C)C)n1 [drawing 417] | 1000 to 10000 nM | 1000 to 10000 nM | – | – | –
CC(C)c1cc(N(C)C)nc(C(C)C)c1NC(=O)NS(=O)(=O)c1cnn2c1OCCC2 [drawing 418] | 100 to 1000 nM | 1000 to 10000 nM | – | – | –
